Measured values taken from patent publication US9346809B2 (LEO PHARMA A/S, priority 2009, dated 2016).
Read-outs that look alike come from different tables or passages of the source.

Key:
Type in all cases: biochemical
[1] = biological target: T1, JAK2 (catalytic domain, His-tag) (Homo sapiens, UniProt O60674); assay: JAK kinase assay (HTRF, phosphorylation of TK substrate-biotin), JAK2; details: ATP at Km (4 μM)
T1 construct: All four purified enzymes contain only the catalytic domain; His (N); purchased Carna Biosciences, Inc; host or cells: baculovirus expression system
T1 sequence (O60674 849-1124 limits assumed): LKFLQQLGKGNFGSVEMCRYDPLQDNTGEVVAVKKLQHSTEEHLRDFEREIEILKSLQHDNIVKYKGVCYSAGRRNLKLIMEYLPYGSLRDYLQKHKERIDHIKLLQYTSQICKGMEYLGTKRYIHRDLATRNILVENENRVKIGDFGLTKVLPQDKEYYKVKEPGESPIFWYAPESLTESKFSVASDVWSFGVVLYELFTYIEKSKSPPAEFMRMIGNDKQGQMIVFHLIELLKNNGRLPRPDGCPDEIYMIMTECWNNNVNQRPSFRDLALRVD
Procedure, shortened: (§1)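 EC50 values come from HTRF detection of phospho-biotin-TK peptide (1 μM) after 20-30 min RT reactions in Hepes pH 7.0 buffer with 0.75% DMSO. ATP was at Km for each enzyme: 7 μM JAK1, 4 μM JAK2, 2 μM JAK3, 13 μM TYK2. SEB (50 nM) was added for JAK1 and TYK2 only.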

[2] = biological target: T2, TYK2 (aa 871-1187, catalytic domain, GST-tag) (Homo sapiens, UniProt P29597); assay: JAK kinase assay (HTRF, phosphorylation of TK substrate-biotin), TYK2; details: ATP at Km (13 μM)
T2 construct: JAK1 (aa 850-1154) and TYK2 (aa 871-1187) are expressed with an N-terminally fused GST-tag; GST (N); purchased Carna Biosciences, Inc; host or cells: baculovirus expression system
T2 sequence (P29597 871-1187): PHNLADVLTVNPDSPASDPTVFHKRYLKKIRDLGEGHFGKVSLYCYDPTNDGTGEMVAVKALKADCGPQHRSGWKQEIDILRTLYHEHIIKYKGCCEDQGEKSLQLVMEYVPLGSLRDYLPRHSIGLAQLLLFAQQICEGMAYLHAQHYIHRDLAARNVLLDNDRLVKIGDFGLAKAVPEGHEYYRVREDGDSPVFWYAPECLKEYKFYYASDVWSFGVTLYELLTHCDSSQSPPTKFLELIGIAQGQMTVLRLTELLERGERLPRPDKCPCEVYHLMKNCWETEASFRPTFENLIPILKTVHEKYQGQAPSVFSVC
Procedure, shortened: as §1

[3] = biological target: T3, JAK3 (catalytic domain, His-tag) (Homo sapiens, UniProt P52333); assay: JAK kinase assay (HTRF, phosphorylation of TK substrate-biotin), JAK3; details: ATP at Km (2 μM)
T3 construct: All four purified enzymes contain only the catalytic domain; His (N); purchased Carna Biosciences, Inc; host or cells: baculovirus expression system
T3 sequence (P52333 822-1111 limits assumed): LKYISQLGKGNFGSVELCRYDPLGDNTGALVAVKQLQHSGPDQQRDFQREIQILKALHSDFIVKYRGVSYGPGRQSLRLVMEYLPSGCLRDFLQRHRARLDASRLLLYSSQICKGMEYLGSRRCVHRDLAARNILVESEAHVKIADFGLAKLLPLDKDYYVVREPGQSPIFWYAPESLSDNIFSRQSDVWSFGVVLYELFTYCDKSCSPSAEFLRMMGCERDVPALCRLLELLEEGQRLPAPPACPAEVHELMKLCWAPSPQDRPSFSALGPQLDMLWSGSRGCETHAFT
Procedure, shortened: as §1

[4] = biological target: T4, JAK1 (aa 850-1154, catalytic domain, GST-tag) (Homo sapiens, UniProt P23458); assay: JAK kinase assay (HTRF, phosphorylation of TK substrate-biotin), JAK1; details: ATP at Km (7 μM)
T4 construct: JAK1 (aa 850-1154) and TYK2 (aa 871-1187) are expressed with an N-terminally fused GST-tag; GST (N); purchased Carna Biosciences, Inc; host or cells: baculovirus expression system
T4 sequence (P23458 850-1154): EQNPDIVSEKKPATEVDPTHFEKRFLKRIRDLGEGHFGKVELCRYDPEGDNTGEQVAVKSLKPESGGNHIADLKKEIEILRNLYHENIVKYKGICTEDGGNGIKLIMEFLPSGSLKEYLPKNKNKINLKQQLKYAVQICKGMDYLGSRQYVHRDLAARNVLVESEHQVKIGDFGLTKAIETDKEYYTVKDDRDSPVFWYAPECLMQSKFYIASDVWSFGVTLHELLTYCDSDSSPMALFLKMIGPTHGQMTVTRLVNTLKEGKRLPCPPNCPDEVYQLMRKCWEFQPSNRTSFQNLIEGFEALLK
Procedure, shortened: as §1

[5] = HTRF assay, read-out: JAK2 kinase inhibitory activity (EC50)
[6] = HTRF assay, read-out: TYK2 kinase inhibitory activity (EC50)
[7] = HTRF assay, read-out: JAK3 kinase inhibitory activity (EC50)
[8] = HTRF assay, read-out: JAK1 kinase inhibitory activity (EC50)
[9] = HTRF assay, read-out: JAK2 kinase inhibitory activity (EC50 indicator)
[10] = HTRF assay, read-out: TYK2 kinase inhibitory activity (EC50 indicator)
[11] = HTRF assay, read-out: JAK3 kinase inhibitory activity (EC50 indicator)
[12] = HTRF assay, read-out: JAK1 kinase inhibitory activity (EC50 indicator)
[13] = read-out: JAK2 kinase inhibitory activity (EC50 indicator)
[14] = read-out: TYK2 kinase inhibitory activity (EC50 indicator)
[15] = read-out: JAK3 kinase inhibitory activity (EC50 indicator)
[16] = read-out: JAK1 kinase inhibitory activity (EC50 indicator)

Row | SMILES | EC50 [1, 9] | EC50 [2, 10] | EC50 [3, 11] | EC50 [4, 12] | EC50 [1, 13] | EC50 [2, 14] | EC50 [3, 15] | EC50 [4, 16] | also measured
1 | NS(=O)(=O)c1cnn(CCC(=O)N2CCN(c3ncnc4[nH]ccc34)CC23CC3)c1 [Example 435, 1-{3-Oxo-3-[7-(7H-pyrrolo[2,3-d]pyrimidin-4-yl)-4,7-diaza-spiro[2.5]oct-4-yl]-propyl}-1H-pyrazole-4-sulfonic acid amide] | – | – | – | – | – | – | – | – | EC50 [1, 5]: < 100 nM; EC50 [2, 6]: 100 to 500 nM; EC50 [3, 7]: < 100 nM; EC50 [4, 8]: < 100 nM
2 | O=C(c1ccc(S(=O)(=O)NCC2CCCO2)cc1)N1CCN(c2ncnc3[nH]ccc23)CC12CC2 (stereo not shown) [Example 394, 4-[7-(7H-Pyrrolo[2,3-d]pyrimidin-4-yl)-4,7-diaza-spiro[2.5]octane-4-carbonyl]-N-(tetrahydro-furan-2-ylmethyl)-benzenesulfonamide] | < 100 nM | 100 to 500 nM | 100 to 500 nM | < 100 nM | – | – | – | – | –
3 | CSCCC(=O)N1CCN(c2ncnc3[nH]ccc23)CC12CC2 [Example 455, 3-Methylsulfanyl-1-[7-(7H-pyrrolo[2,3-d]pyrimidin-4-yl)-4,7-diaza-spiro[2.5]oct-4-yl]-propan-1-one] | – | – | – | – | – | – | – | – | EC50 [1, 5]: < 100 nM; EC50 [2, 6]: 100 to 500 nM; EC50 [3, 7]: < 100 nM; EC50 [4, 8]: < 100 nM
4 | NS(=O)(=O)c1ccc(CC(=O)N2CCN(c3ncnc4[nH]ccc34)CC23CC3)s1 [Example 195, 5-{2-Oxo-2-[7-(7H-pyrrolo[2,3-d]pyrimidin-4-yl)-4,7-diaza-spiro[2.5]oct-4-yl]-ethyl}-thiophene-2-sulfonic acid amide] | – | – | – | – | < 100 nM | 100 to 500 nM | < 100 nM | < 100 nM | –
5 | O=C(c1cnc2ccccc2n1)N1CCN(c2ncnc3[nH]cc(Cl)c23)CC12CC2 [Example 317, [7-(5-Chloro-7H-pyrrolo[2,3-d]pyrimidin-4-yl)-4,7-diaza-spiro[2.5]oct-4-yl]-quinoxalin-2-yl-methanone] | 100 to 500 nM | > 500 nM | > 500 nM | > 500 nM | – | – | – | – | –
6 | Cc1cc(C(=O)N2[C@@H]3CC[C@H]2CN(c2ncnc4[nH]ccc24)C3)ccc1S(N)(=O)=O [Example 392, 2-Methyl-4-[3-(7H-pyrrolo[2,3-d]pyrimidin-4-yl)-3,8-diaza-bicyclo[3.2.1]octane-8-carbonyl]-benzenesulfonamide] | < 100 nM | > 500 nM | < 100 nM | < 100 nM | – | – | – | – | –
7 | NS(=O)(=O)c1ccc(C(=O)N2CCN(c3ncnc4[nH]ccc34)CC23CC3)cc1 [Example 369, 4-[7-(7H-Pyrrolo[2,3-d]pyrimidin-4-yl)-4,7-diaza-spiro[2.5]octane-4-carbonyl]-benzenesulfonamide] | < 100 nM | < 100 nM | < 100 nM | < 100 nM | – | – | – | – | –
8 | N#CCCC(=O)N1CCN(c2nc(N)nc3[nH]ccc23)CC12CC2 [Example 313, 4-[7-(2-Amino-7H-pyrrolo[2,3-d]pyrimidin-4-yl)-4,7-diaza-spiro[2.5]oct-4-yl]-4-oxo-butyronitrile] | < 100 nM | 100 to 500 nM | < 100 nM | < 100 nM | – | – | – | – | –
9 | CC1CN(C(=O)CCC#N)C2(CC2)CN1c1ncnc2[nH]ccc12 (stereo not shown) [Example 150, 4-[6-Methyl-7-(7H-pyrrolo[2,3-d]pyrimidin-4-yl)-4,7-diaza-spiro[2.5]oct-4-yl]-4-oxo-butyronitrile] | – | – | – | – | < 100 nM | > 500 nM | < 100 nM | < 100 nM | –
10 | O=C(c1cccc2[nH]ccc12)N1CCN(c2ncnc3[nH]ccc23)CC12CC2 [Example 159, (1H-Indol-4-yl)-[7-(7H-pyrrolo[2,3-d]pyrimidin-4-yl)-4,7-diaza-spiro[2.5]oct-4-yl]-methanone] | – | – | – | – | < 100 nM | 100 to 500 nM | 100 to 500 nM | < 100 nM | –
11 | N#CCCCC(=O)N1CCN(c2nc(N)nc3[nH]ccc23)CC12CC2 [Example 310, 5-[7-(2-Amino-7H-pyrrolo[2,3-d]pyrimidin-4-yl)-4,7-diaza-spiro[2.5]oct-4-yl]-5-oxo-pentanenitrile] | < 100 nM | > 500 nM | < 100 nM | < 100 nM | – | – | – | – | –
12 | NS(=O)(=O)c1ccc(C(=O)C(=O)N2CCN(c3ncnc4[nH]ccc34)CC23CC3)cc1 [Example 63, 4-{2-Oxo-2-[7-(7H-pyrrolo[2,3-d]pyrimidin-4-yl)-4,7-diaza-spiro[2.5]oct-4-yl]-acetyl}-benzenesulfonamide] | – | – | – | – | < 100 nM | < 100 nM | < 100 nM | < 100 nM | –
13 | Cc1c[nH]c2ncnc(N3CCN(C(=O)Cc4cccc(CC#N)c4)C4(CC4)C3)c12 [Example 327, (3-{2-[7-(5-Methyl-7H-pyrrolo[2,3-d]pyrimidin-4-yl)-4,7-diaza-spiro[2.5]oct-4-yl]-2-oxo-ethyl}-phenyl)-acetonitrile] | > 500 nM | > 500 nM | > 500 nM | > 500 nM | – | – | – | – | –
14 | Cc1nccnc1C(=O)N1[C@@H]2CC[C@H]1CN(c1ncnc3[nH]ccc13)C2 [Example 72, (3-Methyl-pyrazin-2-yl)-[3-(7H-pyrrolo[2,3-d]pyrimidin-4-yl)-3,8-diaza-bicyclo[3.2.1]oct-8-yl]-methanone] | – | – | – | – | < 100 nM | > 500 nM | 100 to 500 nM | 100 to 500 nM | –
15 | N#Cc1ccccc1CC(=O)N1CCN(c2ncnc3[nH]ccc23)CC12CC2 [Example 113, 2-{2-Oxo-2-[7-(7H-pyrrolo[2,3-d]pyrimidin-4-yl)-4,7-diaza-spiro[2.5]oct-4-yl]-ethyl}-benzonitrile] | – | – | – | – | < 100 nM | > 500 nM | 100 to 500 nM | 100 to 500 nM | –
16 | N#Cc1ccc(C(=O)N2[C@@H]3CC[C@@H]2CN(c2ncnc4[nH]ccc24)C3)c(F)c1 [Example 351, 3-Fluoro-4-[3-(7H-pyrrolo[2,3-d]pyrimidin-4-yl)-3,8-diaza-bicyclo[3.2.1]octane-8-carbonyl]-benzonitrile] | < 100 nM | > 500 nM | 100 to 500 nM | < 100 nM | – | – | – | – | –
17 | CC(C)(C)[S+]([O-])N1CCN(c2ncnc3[nH]ccc23)CC12CC2 (stereo not shown) [Example 449, 4-[4-(2-Methyl-propane-2-sulfinyl)-4,7-diaza-spiro[2.5]oct-7-yl]-7H-pyrrolo[2,3-d]pyrimidine] | – | – | – | – | – | – | – | – | EC50 [1, 5]: 100 to 500 nM; EC50 [2, 6]: > 500 nM; EC50 [3, 7]: > 500 nM; EC50 [4, 8]: > 500 nM
18 | O=C(c1ccccc1)N1CCN(c2ccnc3[nH]ccc23)CC12CC2 [Example 221, Phenyl-[7-(1H-pyrrolo[2,3-b]pyridin-4-yl)-4,7-diaza-spiro[2.5]oct-4-yl]-methanone] | < 100 nM | > 500 nM | 100 to 500 nM | < 100 nM | – | – | – | – | –
19 | COC(=O)c1cc2c(N3CCN(C(=O)Cc4ccc(CC#N)cc4)C4(CC4)C3)ncnc2[nH]1 [Example 122, 4-{4-[2-(4-Cyanomethyl-phenyl)-acetyl]-4,7-diaza-spiro[2.5]oct-7-yl}-7H-pyrrolo[2,3-d]pyrimidine-6-carboxylic acid methyl ester] | – | – | – | – | > 500 nM | > 500 nM | > 500 nM | > 500 nM | –
20 | O=C(CCC(F)(F)F)N1[C@@H]2CC[C@H]1CN(c1ncnc3[nH]ccc13)C2 [Example 181, 4,4,4-Trifluoro-1-[3-(7H-pyrrolo[2,3-d]pyrimidin-4-yl)-3,8-diaza-bicyclo[3.2.1]oct-8-yl]-butan-1-one] | – | – | – | – | < 100 nM | 100 to 500 nM | 100 to 500 nM | < 100 nM | –
21 | N#Cc1ccc(CC(=O)N2CCN(c3ccnc4[nH]ccc34)CC23CC3)cc1 [Example 115, 4-{2-Oxo-2-[7-(1H-pyrrolo[2,3-b]pyridin-4-yl)-4,7-diaza-spiro[2.5]oct-4-yl]-ethyl}-benzonitrile] | – | – | – | – | < 100 nM | > 500 nM | < 100 nM | < 100 nM | –
22 | Cc1sc(C(=O)N2CCN(c3ncnc4[nH]ccc34)CC23CC3)cc1Br [Example 208, (4-Bromo-5-methyl-thiophen-2-yl)-[7-(7H-pyrrolo[2,3-d]pyrimidin-4-yl)-4,7-diaza-spiro[2.5]oct-4-yl]-methanone] | < 100 nM | < 100 nM | < 100 nM | < 100 nM | – | – | – | – | –
